Data reported in patent US10988477B2 (Merck Patent GmbH, priority 2018, dated 2021).

Legend:
GCN2 kinase = GCN2 kinase (Homo sapiens, UniProt Q9P2K8); test: GCN2 enzyme inhibition assay (Transcreener ADP2 fluorescence polarization); assay type: biochemical; conditions: compounds of Formula II; 280 μM ATP, 4 nM GCN2 kinase
How it was run: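 4 nM GCN2 + 200 μM (RS)7 + compound (0–8 μM), 10 min preinc.; start with ATP (280 μM final); 1 h, 25 °C; pH 7.5 Tris/NaCl/MgCl2/DTT; ADP FP readout; IC50, Ki(app) via tight-binding fit.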

[1] = target: intracellular GCN2 (phosphorylation of the GCN2 substrate eIF2α) (Homo sapiens, UniProt Q9P2K8); test: GCN2 cellular inhibition assay (AlphaScreen SureFire P-eIF2α Ser51, borrelidin-treated U2OS cells); assay type: cell-based; conditions: compounds of Formula II; biomarker assay, phosphorylated eIF2α Ser51 in borrelidin-treated U2OS cells
Sequence of intracellular GCN2 (phosphorylation of the GCN2 substrate eIF2α) (Q9P2K8 whole entry): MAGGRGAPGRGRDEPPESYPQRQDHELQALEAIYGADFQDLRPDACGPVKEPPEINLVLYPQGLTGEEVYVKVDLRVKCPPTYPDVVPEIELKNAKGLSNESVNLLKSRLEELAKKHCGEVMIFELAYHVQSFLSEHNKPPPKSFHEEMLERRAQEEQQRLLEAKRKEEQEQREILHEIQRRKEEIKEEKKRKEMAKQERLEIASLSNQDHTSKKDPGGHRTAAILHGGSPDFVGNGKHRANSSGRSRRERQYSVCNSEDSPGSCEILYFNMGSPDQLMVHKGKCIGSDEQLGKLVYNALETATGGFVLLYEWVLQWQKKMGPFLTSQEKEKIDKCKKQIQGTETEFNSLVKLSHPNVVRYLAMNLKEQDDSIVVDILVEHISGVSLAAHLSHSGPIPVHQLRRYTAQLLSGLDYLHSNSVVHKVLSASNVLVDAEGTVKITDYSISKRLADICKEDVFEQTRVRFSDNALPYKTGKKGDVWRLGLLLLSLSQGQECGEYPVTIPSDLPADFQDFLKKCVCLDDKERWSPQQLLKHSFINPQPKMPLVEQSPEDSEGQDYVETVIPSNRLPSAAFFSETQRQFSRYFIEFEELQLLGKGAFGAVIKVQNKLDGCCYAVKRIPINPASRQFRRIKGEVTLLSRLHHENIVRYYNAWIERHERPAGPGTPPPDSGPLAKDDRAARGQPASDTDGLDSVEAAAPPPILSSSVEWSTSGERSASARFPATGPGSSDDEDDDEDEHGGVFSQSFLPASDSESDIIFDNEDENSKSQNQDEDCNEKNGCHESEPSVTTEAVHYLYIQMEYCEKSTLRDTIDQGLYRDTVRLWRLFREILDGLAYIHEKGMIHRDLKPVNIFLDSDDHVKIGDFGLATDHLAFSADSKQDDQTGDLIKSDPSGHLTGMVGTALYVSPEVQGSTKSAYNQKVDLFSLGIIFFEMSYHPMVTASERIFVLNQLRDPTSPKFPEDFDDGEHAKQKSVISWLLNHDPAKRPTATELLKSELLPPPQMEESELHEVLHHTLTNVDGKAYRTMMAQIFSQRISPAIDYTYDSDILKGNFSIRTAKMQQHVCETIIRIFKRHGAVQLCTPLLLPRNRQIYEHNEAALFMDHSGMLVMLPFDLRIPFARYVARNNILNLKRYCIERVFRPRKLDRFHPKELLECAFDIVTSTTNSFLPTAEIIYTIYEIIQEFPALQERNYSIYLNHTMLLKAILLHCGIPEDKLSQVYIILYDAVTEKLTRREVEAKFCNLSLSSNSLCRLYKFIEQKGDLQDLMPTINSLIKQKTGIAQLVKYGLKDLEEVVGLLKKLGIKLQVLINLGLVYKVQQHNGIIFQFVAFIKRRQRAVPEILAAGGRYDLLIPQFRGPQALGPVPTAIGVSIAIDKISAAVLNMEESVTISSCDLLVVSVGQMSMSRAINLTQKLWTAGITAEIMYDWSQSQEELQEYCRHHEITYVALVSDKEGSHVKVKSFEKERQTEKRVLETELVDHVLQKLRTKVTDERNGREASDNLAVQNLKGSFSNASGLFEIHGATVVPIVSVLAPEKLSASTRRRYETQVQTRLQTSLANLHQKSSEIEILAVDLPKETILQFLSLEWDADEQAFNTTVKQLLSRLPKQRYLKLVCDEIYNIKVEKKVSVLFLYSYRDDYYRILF
How it was run: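 Borrelidin at 10 μM is added to U2OS cells immediately after compound (4-fold dilution series, 40 μM top final) for 1 h at 37 °C. Phosphorylated eIF2α Ser51 in lysates is quantified by AlphaScreen and expressed as percent inhibition against borrelidin-stimulated controls.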

Sequence of GCN2 kinase (Q9P2K8 whole entry): as above

Ki (GCN2 kinase) [µM]	IC50 [1] [µM]	Compound
< 0.01	< 0.5	CC1CN(c2cc(-c3cnc4ccc(C(F)F)nn34)ncn2)CC(CNS(C)(=O)=O)O1 (stereo not shown) [II-33, N-((4-(6-(6-(Difluoromethyl)imidazo[1,2-b]pyridazin-3-yl)pyrimidin-4-yl)-6-methylmorpholin-2-yl)methyl)methanesulfonamide]
< 0.01	< 0.5	CS(=O)(=O)NC[C@@H]1CN(c2cc(-c3cnc4ccc(C(F)F)nn34)ncn2)CCO1 [II-34, (S)—N-((4-(6-(6-(Difluoromethyl)imidazo[1,2-b]pyridazin-3-yl)pyrimidin-4-yl)morpholin-2-yl)methyl)methanesulfonamide]
< 0.01	< 0.5	CS(=O)(=O)NCC1CC(O)CN(c2cc(-c3cnc4ccc(C(F)F)nn34)ccn2)C1 (stereo not shown) [II-40, N-((1-(4-(6-(Difluoromethyl)imidazo[1,2-b]pyridazin-3-yl)pyridin-2-yl)-5-hydroxypiperidin-3-yl)methyl)methanesulfonamide]
0.01 to 1	0.5 to 5	Cc1ncc(-c2cnc3ccc(C(F)F)nn23)cc1N1CCCC(CNS(C)(=O)=O)C1 (stereo not shown) [II-49, N-((1-(5-(6-(Difluoromethyl)imidazo[1,2-b]pyridazin-3-yl)-2-methylpyridin-3-yl)piperidin-3-yl)methyl)methanesulfonamide]
< 0.01	0.5 to 5	Cc1cnc(-c2cnc3ccc(C(F)F)nn23)cc1N1CCCC(CNS(C)(=O)=O)C1 (stereo not shown) [II-53, N-((1-(2-(6-(Difluoromethyl)imidazo[1,2-b]pyridazin-3-yl)-5-methylpyridin-4-yl)piperidin-3-yl)methyl)methanesulfonamide]
< 0.01	< 0.5	CC(=O)N1CC2(C1)CN(c1cc(-c3cnc4ccc(C(F)F)nn34)cc(N3CCCC(CNS(C)(=O)=O)C3)n1)C2 (stereo not shown) [II-55, N-((1-(6-(6-Acetyl-2,6-diazaspiro[3.3]heptan-2-yl)-4-(6-(difluoromethyl)imidazo[1,2-b]pyridazin-3-yl)pyridin-2-yl)piperidin-3-yl)methyl)methanesulfonamide]
< 0.01	< 0.5	CS(=O)(=O)NCC1CCCN(c2cc(-c3cnc4ccc(C(F)F)nn34)ncn2)C1 (stereo not shown) [II-59, N-((1-(6-(6-(Difluoromethyl)imidazo[1,2-b]pyridazin-3-yl)pyrimidin-4-yl)piperidin-3-yl)methyl)methanesulfonamide]
< 0.01	< 0.5	CNc1cc(N2CCCC(CNS(C)(=O)=O)C2)cc(-c2cnc3ccc(C(F)F)nn23)n1 (stereo not shown) [II-60, N-((1-(2-(6-(Difluoromethyl)imidazo[1,2-b]pyridazin-3-yl)-6-(methylamino)pyridin-4-yl)piperidin-3-yl)methyl)methanesulfonamide]
< 0.01	0.5 to 5	CS(=O)(=O)NCC1CCCN(c2cc(-c3cnc4ccc(C(F)F)nn34)cc(Cl)n2)C1 (stereo not shown) [II-61, N-((1-(6-Chloro-4-(6-(difluoromethyl)imidazo[1,2-b]pyridazin-3-yl)pyridin-2-yl)piperidin-3-yl)methyl)methanesulfonamide]

The next lines start with the compound.

Compound	Ki (GCN2 kinase) [µM]	IC50 [1] [µM]
CC1CN(c2cc(-c3cnc4ccc(C(F)F)nn34)ncn2)CC(CNS(C)(=O)=O)C1(F)F (stereo not shown) [II-35, N-((1-(6-(6-(Difluoromethyl)imidazo[1,2-b]pyridazin-3-yl)pyrimidin-4-yl)-4,4-difluoro-5-methylpiperidin-3-yl)methyl)methanesulfonamide]	0.01 to 1	0.5 to 5
C[C@H]1CN(c2cc(-c3cnc4ccc(C(F)F)nn34)ncn2)C[C@@H](CNS(C)(=O)=O)C1(F)F [II-36, N-[[(3S,5S)-1-[6-[6-(Difluoromethyl)imidazo[1,2-b]pyridazin-3-yl]pyrimidin-4-yl]-4,4-difluoro-5-methyl-3-piperidyl]methyl]methanesulfonamide]	< 0.01	< 0.5
CS(=O)(=O)N1CCN2CCN(c3cc(-c4cnc5ccc(C(F)F)nn45)ccn3)CC2C1 (stereo not shown) [II-37, 2-(4-(6-(Difluoromethyl)imidazo[1,2-b]pyridazin-3-yl)pyridin-2-yl)-8-(methylsulfonyl)octahydro-1H-pyrazino[1,2-a]pyrazine]	0.01 to 1	0.5 to 5
FC(F)c1ccc2ncc(-c3ccnc(N4CCN5CCNCC5C4)c3)n2n1 (stereo not shown) [II-38, 2-(4-(6-(Difluoromethyl)imidazo[1,2-b]pyridazin-3-yl)pyridin-2-yl)octahydro-1H-pyrazino[1,2-a]pyrazine]	0.01 to 1	> 5
CS(=O)(=O)NCC1CC(O)CN(c2cc(-c3cnc4ccc(C(F)F)nn34)ccn2)C1 (stereo not shown) [II-39, N-((1-(4-(6-(Difluoromethyl)imidazo[1,2-b]pyridazin-3-yl)pyridin-2-yl)-5-hydroxypiperidin-3-yl)methyl)methanesulfonamide]	0.01 to 1	0.5 to 5
Cn1cc(C(=O)N2CCCC(c3cc(-c4cnc5ccc(C(F)F)nn45)ncn3)C2)cn1 (stereo not shown) [II-41, (3-(6-(6-(Difluoromethyl)imidazo[1,2-b]pyridazin-3-yl)pyrimidin-4-yl)piperidin-1-yl)(1-methyl-1H-pyrazol-4-yl)methanone]	0.01 to 1	0.5 to 5
CS(=O)(=O)N1CCC2(CCN2c2cncc(-c3cnc4ccc(C(F)F)nn34)c2)CC1 [II-42, 6-(Difluoromethyl)-3-(5-(7-(methylsulfonyl)-1,7-diazaspiro[3.5]nonan-1-yl)pyridin-3-yl)imidazo[1,2-b]pyridazine]	0.01 to 1	> 5
Cc1ncc(-c2cnc3ccc(C(F)F)nn23)cc1N1CCC12CCN(S(C)(=O)=O)CC2 [II-44, 6-(Difluoromethyl)-3-(6-methyl-5-(7-(methylsulfonyl)-1,7-diazaspiro[3.5]nonan-1-yl)pyridin-3-yl)imidazo[1,2-b]pyridazine]	0.01 to 1	0.5 to 5
CC1CN(c2cc(-c3cnc4ccc(C(F)F)nn34)ncn2)CC(CNS(C)(=O)=O)C1(F)F (stereo not shown) [II-45, N-((1-(6-(6-(Difluoromethyl)imidazo[1,2-b]pyridazin-3-yl)pyrimidin-4-yl)-4,4-difluoro-5-methylpiperidin-3-yl)methyl)methanesulfonamide]	< 0.01	< 0.5
O=C1NCC2CN(c3cc(-c4cnc5ccc(C(F)F)nn45)ncn3)CCN12 (stereo not shown) [II-46, 7-(6-(6-(Difluoromethyl)imidazo[1,2-b]pyridazin-3-yl)pyrimidin-4-yl)hexahydroimidazo[1,5-a]pyrazin-3(2H)-one]	0.01 to 1	> 5
O=C1OC[C@@H]2CN(c3cc(-c4cnc5ccc(C(F)F)nn45)ncn3)CCN12 [II-47, (S)-7-(6-(6-(Difluoromethyl)imidazo[1,2-b]pyridazin-3-yl)pyrimidin-4-yl)hexahydro-3H-oxazolo[3,4-a]pyrazin-3-one]	0.01 to 1	0.5 to 5
CS(=O)(=O)CCN1CCCC(c2cc(-c3cnc4ccc(C(F)F)nn34)ncn2)C1 (stereo not shown) [II-48, 6-(Difluoromethyl)-3-(6-(1-(2-(methylsulfonyl)ethyl)piperidin-3-yl)pyrimidin-4-yl)imidazo[1,2-b]pyridazine]	0.01 to 1	> 5
NC(=O)C1CN(c2cc(-c3cnc4ccc(C(F)F)nn34)ncn2)CCO1 (stereo not shown) [II-50, 4-(6-(6-(Difluoromethyl)imidazo[1,2-b]pyridazin-3-yl)pyrimidin-4-yl)morpholine-2-carboxamide]	0.01 to 1	0.5 to 5
O=C1NCCC12CCCN(c1cc(-c3cnc4ccc(C(F)F)nn34)ncn1)C2 (stereo not shown) [II-51, 7-(6-(6-(Difluoromethyl)imidazo[1,2-b]pyridazin-3-yl)pyrimidin-4-yl)-2,7-diazaspiro[4.5]decan-1-one]	0.01 to 1	0.5 to 5
O=C1CC2(CCN(c3cc(-c4cnc5ccc(C(F)F)nn45)ncn3)CC2)N1 [II-52, 7-(6-(6-(Difluoromethyl)imidazo[1,2-b]pyridazin-3-yl)pyrimidin-4-yl)-1,7-diazaspiro[3.5]nonan-2-one]	0.01 to 1	> 5
CS(=O)(=O)N1CCC2(CCN(c3cc(-c4cnc5ccc(C(F)F)nn45)ncn3)C2)CC1 [II-54, 2-(6-(6-(Difluoromethyl)imidazo[1,2-b]pyridazin-3-yl)pyrimidin-4-yl)-8-(methylsulfonyl)-2,8-diazaspiro[4.5]decane]	0.01 to 1	0.5 to 5
CS(=O)(=O)N1CCC2(CCCN(c3cc(-c4cnc5ccc(C(F)F)nn45)ncn3)C2)C1 (stereo not shown) [II-56, 7-(6-(6-(Difluoromethyl)imidazo[1,2-b]pyridazin-3-yl)pyrimidin-4-yl)-2-(methylsulfonyl)-2,7-diazaspiro[4.5]decane]	0.01 to 1	0.5 to 5
CC1CN(c2cc(-c3cnc4ccc(C(F)F)nn34)ccn2)CC(CNS(C)(=O)=O)C1(F)F (stereo not shown) [II-57, N-((1-(4-(6-(Difluoromethyl)imidazo[1,2-b]pyridazin-3-yl)pyridin-2-yl)-4,4-difluoro-5-methylpiperidin-3-yl)methyl)methanesulfonamide]	< 0.01	0.5 to 5
CC1CN(c2cc(-c3cnc4ccc(C(F)F)nn34)ccn2)CC(CNS(C)(=O)=O)C1(F)F (stereo not shown) [II-58, N-((1-(4-(6-(Difluoromethyl)imidazo[1,2-b]pyridazin-3-yl)pyridin-2-yl)-4,4-difluoro-5-methylpiperidin-3-yl)methyl)methanesulfonamide]	< 0.01	< 0.5
O=C1CN(c2cc(-c3cnc4ccc(C(F)F)nn34)ccn2)CCN1 [II-62, 4-(4-(6-(Difluoromethyl)imidazo[1,2-b]pyridazin-3-yl)pyridin-2-yl)piperazin-2-one]	0.01 to 1	> 5
